The results in this text go back to the NIST ThermoML archive (doi:10.1007/s10765-005-8101-x).

± gives the expanded uncertainty stated by the source.

For data set [1] the following is noted: 298.15 K; 101.33 kPa; Liquid.
A short description of data set [2]: xn = mol fraction of the nth substance listed. The settings on record: 298.15 K, 101 kPa, Liquid.

Broadly, the mass density is the mass of a sample divided by its volume. In general, speed of sound refers to how fast a sound wave travels through the sample. In the case of `CCCCO` [butan-1-ol], in data set [1], the mass density was 806.14 ± 0.59 kg/m3 and the speed of sound was 1240.8 ± 2.9 m/s.
As to `CCCCO` [butan-1-ol] + CC(C)O, the mass density in data set [2] (x2 = 0.0596) is 804.62 ± 0.95 kg/m3; in data set [2] (x2 = 0.1039) it was 803.68 ± 0.95 kg/m3; in data set [2] (x2 = 0.2093) it was 801.62 ± 0.96 kg/m3; in data set [2] (x2 = 0.3024), 799.57 ± 0.96 kg/m3; in data set [2] (x2 = 0.3977), 797.49 ± 0.97 kg/m3; in data set [2] (x2 = 0.5033), 794.92 ± 0.98 kg/m3. For the same compound, the mass density in data set [2] (x2 = 0.599) turned out to be 792.68 ± 0.98 kg/m3; in data set [2] (x2 = 0.6946), 790.21 ± 0.99 kg/m3; in data set [2] (x2 = 0.8062), 787.19 ± 1 kg/m3; in data set [2] (x2 = 0.8938) it was 784.58 ± 1 kg/m3. In addition, the speed of sound is 1235.6 ± 5.5 m/s in data set [2] (x2 = 0.0596); 1231.8 ± 5.5 m/s in data set [2] (x2 = 0.1039); 1223.2 ± 5.4 m/s in data set [2] (x2 = 0.2093); 1214.8 ± 5.4 m/s in data set [2] (x2 = 0.3024); 1206.1 ± 5.4 m/s in data set [2] (x2 = 0.3977); 1195.9 ± 5.4 m/s in data set [2] (x2 = 0.5033). Besides, the speed of sound in data set [2] (x2 = 0.599) is given as 1186.5 ± 5.3 m/s; in data set [2] (x2 = 0.6946), 1176.4 ± 5.3 m/s; in data set [2] (x2 = 0.8062), 1164.1 ± 5.3 m/s; in data set [2] (x2 = 0.8938), 1153.6 ± 5.2 m/s.
Turning to `CCCCCCO` [hexan-1-ol], in data set [1], the mass density was 815.15 ± 1.2 kg/m3 and the speed of sound came to 1303.6 ± 5.9 m/s.
In the case of `CCCCCCO` [hexan-1-ol] + CC(C)O, the mass density in data set [2] (x2 = 0.039) amounted to 814.4 ± 1.2 kg/m3; in data set [2] (x2 = 0.1037), 813 ± 1.1 kg/m3; in data set [2] (x2 = 0.2075) it was 810.57 ± 1.1 kg/m3; in data set [2] (x2 = 0.3051) it was 808.2 ± 1.1 kg/m3; in data set [2] (x2 = 0.4032) it was 805.42 ± 1.1 kg/m3; in data set [2] (x2 = 0.5067), 802.47 ± 1.1 kg/m3. In addition, the mass density in data set [2] (x2 = 0.6044) is on record as 799.08 ± 1 kg/m3; in data set [2] (x2 = 0.7047), 795.43 ± 1 kg/m3; in data set [2] (x2 = 0.8059), 791.12 ± 1 kg/m3; in data set [2] (x2 = 0.9081), 786.44 ± 1 kg/m3. Also, the speed of sound in data set [2] (x2 = 0.039) was 1299.6 ± 5.9 m/s; in data set [2] (x2 = 0.1037), 1292.9 ± 5.9 m/s; in data set [2] (x2 = 0.2075), 1281.1 ± 5.8 m/s; in data set [2] (x2 = 0.3051), 1269.2 ± 5.7 m/s; in data set [2] (x2 = 0.4032), 1255.9 ± 5.7 m/s; in data set [2] (x2 = 0.5067), 1241.4 ± 5.6 m/s. The speed of sound in data set [2] (x2 = 0.6044) worked out at 1225 ± 5.5 m/s; in data set [2] (x2 = 0.7047), 1207.3 ± 5.4 m/s; in data set [2] (x2 = 0.8059), 1186.8 ± 5.4 m/s; in data set [2] (x2 = 0.9081) it was 1164.3 ± 5.3 m/s.
Take `CCCCCCCCO` [octan-1-ol]: in data set [1], the mass density is 821.72 ± 2.1 kg/m3 and the speed of sound amounted to 1347.9 ± 6.5 m/s.
Turning to `CCCCCCCCO` [octan-1-ol] + CC(C)O, the mass density in data set [2] (x2 = 0.0862) is 819.96 ± 1.4 kg/m3; in data set [2] (x2 = 0.2078), 817.18 ± 1.4 kg/m3; in data set [2] (x2 = 0.2977), 814.58 ± 1.3 kg/m3; in data set [2] (x2 = 0.4059), 811.74 ± 1.2 kg/m3; in data set [2] (x2 = 0.5012) it was 808.6 ± 1.2 kg/m3; in data set [2] (x2 = 0.5991), 804.77 ± 1.1 kg/m3. Further, the mass density in data set [2] (x2 = 0.6994) was 800.52 ± 1.1 kg/m3; in data set [2] (x2 = 0.7985), 795.28 ± 1.1 kg/m3; in data set [2] (x2 = 0.8993), 789.09 ± 1 kg/m3; in data set [2] (x2 = 0.9453) it was 785.8 ± 1 kg/m3. Also, the speed of sound in data set [2] (x2 = 0.0862) turned out to be 1338.7 ± 6.4 m/s; in data set [2] (x2 = 0.2078), 1324.2 ± 6.2 m/s; in data set [2] (x2 = 0.2977), 1311.6 ± 6.1 m/s; in data set [2] (x2 = 0.4059), 1296 ± 6 m/s; in data set [2] (x2 = 0.5012) it was 1279.4 ± 5.9 m/s; in data set [2] (x2 = 0.5991), 1259.8 ± 5.7 m/s. Further, the speed of sound in data set [2] (x2 = 0.6994) was determined as 1237.7 ± 5.6 m/s; in data set [2] (x2 = 0.7985), 1211.1 ± 5.5 m/s; in data set [2] (x2 = 0.8993) it was 1179.3 ± 5.3 m/s; in data set [2] (x2 = 0.9453) it was 1162.8 ± 5.3 m/s.
As for `CCCO` [propan-1-ol], in data set [1], the mass density is recorded as 800.62 ± 0.6 kg/m3 and the speed of sound is 1208.1 ± 2.8 m/s.
For `CC(C)O` [propan-2-ol], in data set [1], the mass density was determined as 781.91 ± 0.62 kg/m3 and the speed of sound is 1141.3 ± 2.7 m/s.
On to `CC(C)O` [propan-2-ol] + CCCO, for which the mass density is listed as 798.37 ± 0.97 kg/m3 in data set [2] (x1 = 0.1051); 796.76 ± 0.97 kg/m3 in data set [2] (x1 = 0.195); 794.67 ± 0.98 kg/m3 in data set [2] (x1 = 0.3049); 792.8 ± 0.98 kg/m3 in data set [2] (x1 = 0.4062); 791.17 ± 0.99 kg/m3 in data set [2] (x1 = 0.4941); 789.12 ± 0.99 kg/m3 in data set [2] (x1 = 0.6029). Besides, the mass density in data set [2] (x1 = 0.7067) turned out to be 787.16 ± 1 kg/m3; in data set [2] (x1 = 0.8063) it was 785.31 ± 1 kg/m3; in data set [2] (x1 = 0.91), 783.37 ± 1 kg/m3; in data set [2] (x1 = 0.9515), 782.54 ± 1 kg/m3. The speed of sound in data set [2] (x1 = 0.1051) is on record as 1201 ± 5.4 m/s; in data set [2] (x1 = 0.195), 1195.4 ± 5.3 m/s; in data set [2] (x1 = 0.3049), 1187.9 ± 5.3 m/s; in data set [2] (x1 = 0.4062), 1181.3 ± 5.3 m/s; in data set [2] (x1 = 0.4941) it was 1175.4 ± 5.3 m/s; in data set [2] (x1 = 0.6029), 1168 ± 5.3 m/s. Besides, the speed of sound in data set [2] (x1 = 0.7067) was found to be 1161 ± 5.2 m/s; in data set [2] (x1 = 0.8063), 1154.2 ± 5.2 m/s; in data set [2] (x1 = 0.91), 1147.5 ± 5.2 m/s; in data set [2] (x1 = 0.9515), 1144.5 ± 5.2 m/s.
